Laboratory results: patent publication US20030166301A1, “Multiple binding moiety chromatography device, methods of using and methods of making same” (priority 2001, published 2003)
Several values for one entry are separate records, joined by “and”; a condition that tells them apart may be missing. Equal values may be shown once. Read-outs that look alike come from different tables or passages of the source.

Tests used:
PGP = PGP (Homo sapiens, UniProt P08183); test: Frontal chromatography on open tubular PGP column (PGP-OTB)
PGP, sequence (P08183 whole entry): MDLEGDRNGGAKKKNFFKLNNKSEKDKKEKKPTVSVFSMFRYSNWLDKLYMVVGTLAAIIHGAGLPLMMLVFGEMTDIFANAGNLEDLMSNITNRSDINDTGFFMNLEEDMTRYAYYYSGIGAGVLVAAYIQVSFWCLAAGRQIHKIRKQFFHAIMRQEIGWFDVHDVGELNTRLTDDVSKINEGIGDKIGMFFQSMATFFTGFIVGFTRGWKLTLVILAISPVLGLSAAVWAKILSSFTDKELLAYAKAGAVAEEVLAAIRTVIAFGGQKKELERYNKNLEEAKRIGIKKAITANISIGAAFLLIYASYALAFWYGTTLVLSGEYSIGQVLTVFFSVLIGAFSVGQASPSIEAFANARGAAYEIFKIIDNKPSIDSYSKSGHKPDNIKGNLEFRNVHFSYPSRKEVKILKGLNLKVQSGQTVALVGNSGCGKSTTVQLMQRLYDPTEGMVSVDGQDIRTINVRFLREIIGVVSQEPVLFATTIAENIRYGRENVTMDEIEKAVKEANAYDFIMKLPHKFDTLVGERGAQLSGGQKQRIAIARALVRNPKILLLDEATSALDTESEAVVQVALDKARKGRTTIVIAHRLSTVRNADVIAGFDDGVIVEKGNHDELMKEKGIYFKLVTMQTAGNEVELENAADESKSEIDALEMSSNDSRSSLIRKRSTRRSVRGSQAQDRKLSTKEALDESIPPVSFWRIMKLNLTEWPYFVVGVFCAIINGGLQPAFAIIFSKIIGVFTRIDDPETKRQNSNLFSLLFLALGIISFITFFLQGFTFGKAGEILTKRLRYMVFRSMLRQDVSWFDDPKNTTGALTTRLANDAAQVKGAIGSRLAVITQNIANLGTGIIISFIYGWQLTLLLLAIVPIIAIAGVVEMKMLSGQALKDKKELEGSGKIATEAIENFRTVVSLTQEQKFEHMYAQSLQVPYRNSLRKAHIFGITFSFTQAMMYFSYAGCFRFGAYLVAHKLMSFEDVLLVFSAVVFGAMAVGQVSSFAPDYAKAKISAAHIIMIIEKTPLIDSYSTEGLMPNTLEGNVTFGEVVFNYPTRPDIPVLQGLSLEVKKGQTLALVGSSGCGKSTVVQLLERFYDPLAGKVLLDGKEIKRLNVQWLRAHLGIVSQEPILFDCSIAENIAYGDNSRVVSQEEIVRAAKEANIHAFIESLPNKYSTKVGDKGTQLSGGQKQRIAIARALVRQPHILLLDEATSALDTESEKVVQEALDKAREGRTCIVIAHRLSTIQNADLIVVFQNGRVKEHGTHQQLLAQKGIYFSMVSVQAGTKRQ
Procedure: Preparation of open tubular capillary: A 25 cm×100 u ID capillary was cleaned with 0.5 N NaOH running through for 40 minutes at low pressure followed by water for 20 minutes. Then placed in the oven at 95° C. for 30 minutes. Then APTS (90 parts water: 10 parts APTS) was run through the column for 5 minutes at high pressure and placed in the oven for 30 minutes. This was repeated and left overnight. The following morning, a 1% gluteraldehyde solution in PBS was then run through at high pressure for 30 minutes followed by air. Then avidin (10 mg in 4 mL 50 mM PBS) was run through for 3 minutes at high pressure. Then both tips were submerged in the avidin solution overnight at 4° C. It was determined at this stage that the column needs to be washed for 4-6 hours at 50 ul/min with Tris buffer prior to continuing to the next stage. The purpose being to remove any unbound avidin. A frontal study using a 5 mL sample of 0.5 nM ^3H-Vinblastin (RM062702002) was carried out to determine if vinblastin had specific binding to avidin.
Subsequently, a solution of 14 mM BioX (15 mg of BioX in 1 mL DMSO) was run through the column at high pressure for 10 minutes and left in the solution for 48 hours. A frontal study of 0.5 nM ^3H-Vinblastin (5 mL) was carried out on the BiotinX-Avidin labeled OT column to determine if any interactions between vinblastin and biotin could be seen. […]

NCT receptor = NCT receptor (Rattus norvegicus, UniProt P09483+P12390); type: binding
NCT receptor, sequence (P12390 25-500): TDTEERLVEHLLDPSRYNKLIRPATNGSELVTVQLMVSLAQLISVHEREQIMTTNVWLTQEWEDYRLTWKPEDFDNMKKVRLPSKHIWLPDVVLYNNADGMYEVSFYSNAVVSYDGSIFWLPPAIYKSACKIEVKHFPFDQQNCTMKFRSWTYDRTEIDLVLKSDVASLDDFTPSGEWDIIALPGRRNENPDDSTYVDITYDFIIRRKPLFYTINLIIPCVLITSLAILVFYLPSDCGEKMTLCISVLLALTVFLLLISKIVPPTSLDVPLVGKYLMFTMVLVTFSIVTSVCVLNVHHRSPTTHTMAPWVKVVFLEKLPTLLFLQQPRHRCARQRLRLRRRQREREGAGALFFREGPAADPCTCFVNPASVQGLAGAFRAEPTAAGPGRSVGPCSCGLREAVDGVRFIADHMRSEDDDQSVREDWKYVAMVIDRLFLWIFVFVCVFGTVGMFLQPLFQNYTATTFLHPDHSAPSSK
NCT receptor, sequence (P09483 31-630): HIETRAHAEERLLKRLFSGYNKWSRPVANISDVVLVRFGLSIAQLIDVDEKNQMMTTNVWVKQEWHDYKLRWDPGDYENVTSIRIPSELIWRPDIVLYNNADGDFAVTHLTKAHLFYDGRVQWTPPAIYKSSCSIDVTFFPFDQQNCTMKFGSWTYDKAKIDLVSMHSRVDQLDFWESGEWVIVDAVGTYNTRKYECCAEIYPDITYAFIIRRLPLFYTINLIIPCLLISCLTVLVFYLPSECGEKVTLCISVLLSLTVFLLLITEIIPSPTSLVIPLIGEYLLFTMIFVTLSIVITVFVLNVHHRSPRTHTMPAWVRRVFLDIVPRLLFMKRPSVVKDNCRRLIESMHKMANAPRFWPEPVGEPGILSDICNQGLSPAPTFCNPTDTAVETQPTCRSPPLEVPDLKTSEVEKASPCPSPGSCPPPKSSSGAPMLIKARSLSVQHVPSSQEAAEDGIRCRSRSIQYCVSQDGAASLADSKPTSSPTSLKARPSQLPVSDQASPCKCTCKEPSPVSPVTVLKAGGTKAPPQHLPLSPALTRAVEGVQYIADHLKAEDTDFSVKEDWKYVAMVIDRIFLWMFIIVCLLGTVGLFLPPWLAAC
Procedure: (§1) Solubilization of rat brain tissue: All of the tissue from four rat brains was homogenized in 30 ml of Tris-HCl buffer (50 mM, pH 7.4) containing 5 mM EDTA, 3 mM benzamidine and 0.2 mM PMSF for 3×20 seconds using a Polytron homogenizer (Brinkman Instruments, Westbury, N.Y., USA) at setting 6. The mixture was kept in an ice bath for 20 seconds between each homogenization step to prevent excessive heating of the tissue. The homogenized brain tissue was centrifuged for 10 minutes at 4° C. at 35,000×g, and the supernatant was discarded. The pellet was suspended in 10 ml of Tris-HCl buffer (50 mM, pH 7.4) containing 100 mM NaCl, 2 mM MgCl2, 3 mM CaCl2, 5 mM KCl, 2% sodium cholate, and 10 μg/ml leupeptin. The resulting mixture was stirred for 12 hours at 4° C. and centrifuged at 35,000×g.
(§2) Immobilization of solubilized receptors: The supernatant (receptor-cholate suspension) was mixed with 200 mg of dried IAM-PC packing material and stirred gently for 1 hour at 25° C., transferred into dialysis tubing, and dialyzed for 48 hours at 4° C. against 3×600 ml of Tris-HCl buffer (50 mM, pH 7.4) containing 5 mM EDTA, 100 mM NaCl, 0.1 mM CaCl2 and 0.1 mM PMSF. […]
(§3) The value of Vmin can be determined by running (^3H)-EB in a series of concentration of drugs and plotting 1/(Vmax−V) versus 1/(drug) extrapolating to infinite (drug). […]

GABAA receptor [1] = test: Frontal chromatography on MR-SP, marker (3H)-FTZ; type: binding, rat
Procedure: as §1, §2, §3

Nicotinic Receptor = details: read-out: Kd Standard, cited from earlier work
GABAA receptor [2] = details: rat brain membranes; read-out: Kd Standard; cited from earlier work

Procedure for NMDA receptor: as §1
Immobilization of solubilized receptors: The supernatant (receptor-cholate suspension) was mixed with 200 mg of dried IAM-PC packing material and stirred gently for 1 hour at 25° C., transferred into dialysis tubing, and dialyzed for 48 hours at 4° C. against 3×600 ml of Tris-HCl buffer (50 mM, pH 7.4) containing 5 mM EDTA, 100 mM NaCl, 0.1 mM CaCl2 and 0.1 mM PMSF.
The resulting mixture was centrifuged for 3 minutes at 4° C. at 32,000×g, and the supernatant was discarded. The pellet (MR-SP) was washed with Tris-HCl buffer (50 mM, pH 7.4) and centrifuged. This process was repeated until the supernatant was clear. The MR-SP was then collected.
Chromatographic procedures: The MR-SP (200 mg) was packed into a HR 5/2 glass column (Amersham Pharmacia Biotech, Uppsala, Sweden) to yield a 150 mm×5 mm (ID) chromatographic bed. The column was then connected to a P 1000 isocratic HPLC pump (Thermo Separations, San Jose, Calif., USA). The mobile phase consisted of Tris-HCl buffer (50 mM, pH 7.4) delivered at a flow rate 0.4 ml/min at room temperature.
In the chromatographic studies, a 50 ml sample Superloop (Amersham Pharmacia Biotech) was used to apply a series of (^3H)-marker ligand concentrations through the MR-SP column to obtain elution profiles showing front and plateau regions. […]

CC[C@]1(O)C[C@@H]2CN(CCc3c([nH]c4ccccc34)[C@@](C(=O)OC)(c3cc4c(cc3OC)N(C)[C@H]3[C@@](O)(C(=O)OC)[C@H](OC(C)=O)[C@]5(CC)C=CCN6CC[C@]43[C@@H]65)C2)C1 [Vinblastin]
Bmax (binding sites on the PGP-OTB column) (PGP; not told): 3 mmol | Kd (PGP; read-out: Kd for the PGP-OTB column, 0.5 nM 3H-Vinblastin marker, r2 0.902): 97 nM

CN1CCCC1c1cccnc1 (stereo not shown) [Nicotine]
Effect on elution (breakthrough) volume of 60 pM (3H)-EB (NCT receptor): reduction in the breakthrough volume | Effect on elution volume of 25 pM (3H)-FTZ (GABAA receptor [1]; ligand at 1 μM in mobile phase): no decrease in the elution volume | Kd (Nicotinic Receptor): 0.8 nM

CN1C(=O)CN=C(c2ccccc2)c2cc(Cl)ccc21 [Diazepam]
Kd (GABAA receptor [1]; MR-SP from rat brain, 25 pM (3H)-FTZ marker, Tris-HCl 50 mM pH 7.4): 1 nM | Kd (GABAA receptor [2]): 1.3 nM

Clc1ccc(C2CC3CCC2N3)cn1 (stereo not shown) [Epibatidine]
Kd (Nicotinic Receptor; rat brain membranes): 0.05 nM

CN[C@H](CC(=O)O)C(=O)O [NMDA, N-methyl D-aspartate]
Displacement of (3H)-MK-801 (NMDA receptor; displacer 1 mM to 2 mM in chromatographic buffer): able to specifically displace | Kd (NMDA receptor; read-out: Kd Frontal, MR-SP, 2 nM (3H)-MK-801 marker, 1 μM L-glutamate and 1 μM glycine, two determinations (FIG. 2A, 2B)): 1.2 nM and 0.6 nM
